Key:
[1] = test system: NPY-like receptors in non-human organisms; assay: Cell-based GCaMP6s assay of related NPY-like receptors from a variety of organisms; settings: HEK cells, GCaMP6s readout, FIG. 2
Text: (§1) The six compounds were screened in vitro against the panel of all 49 known Ae. aegypti peptide receptors from both L3 and L5 genome annotations, as well as human NPY receptors. FIG. 2 illustrates the level of activation of related NPY-like receptors by Ae. aegypti NPYLR7 agonists in a variety of organisms in a cell-based assay. HEK cells were transfected with receptor cDNA, promiscuous Gα subunit, and GCaMP6s. Activation was read out as increase in GFP fluorescence and EC50 values were calculated on a 6 point dose-response curve (FIG. 2). The vertical axis of each box represents NPY-related receptors for each organism: for instance, Ae. aegypti has three receptors that were tested in this assay, while Ae. Albopictus has four. […] Albopictus. The horizontal axis indicates the compound tested. […] Compounds 6, 7, 2, 5, 1, and 9 were also tested.

human NPY receptors = assay: Cell-based GCaMP6s assay of human NPY receptor activation; settings: HEK cells, GCaMP6s readout, FIG. 2
Text: as §1

Female mosquitoes = assay: Live host assay: blood-feeding on an anesthetized mouse (mark-release-recapture); format: in vivo, Ae. aegypti; settings: 100 μM in saline fed two days prior
Text: Females from each feeding group were separately marked with one of three different paint powders using the “shake in a bag” technique (Verhulst et al., 2013), and all three of these groups were pooled and allowed to recover together in a cage. […] Females were scored for powder color to indicate treatment condition and for the presence of fresh blood in the midgut. Similar to the results in host-seeking assays, non-blood-fed and saline-fed females consumed fresh blood at high levels. In contrast, females that had fed on sheep blood two days prior rarely consumed fresh blood. […] (Compound designations shown as circled numbers.)

[2] = test system: Aedes albopictus NPY-like receptors; assay: Cell-based GCaMP6s assay of Aedes albopictus NPY-like receptors; settings: FIG. 2
Text: as §1
(§2) Aedes albopictus host-seeking in a miniport olfactometer two days after feeding the indicated meals (n=6-34, 15-25 females/trial) is shown in FIG. 5. Data are plotted as median with range.

[3] = test system: Aedes albopictus mosquitoes; assay: Miniport olfactometer host-seeking assay in Aedes albopictus; format: in vivo; settings: two days after feeding, FIG. 5
Text: as §2

Row | Structure (SMILES) | Activation of NPY-like receptors in non-human organisms [1] | Activation of human NPY receptors (human NPY receptors) | Blood-feeding on a live host (anesthetized mouse) (Female mosquitoes; 15 minutes access to mouse) | Blood-feeding on a live host, NPYLR7 mutants (Female mosquitoes; NPYLR7 mutant females) | Activation of Aedes albopictus NPY-like receptors in vitro [2] | Suppression of host-seeking in Aedes albopictus, miniport olfactometer [3]
1 | COc1ccc2c(C)nc(NC(=N)N)nc2c1 [Compound 1] | activate many of the receptors in non-human organisms | none of these compounds activates any of the human receptors | very low levels of blood-feeding on a live host | resistant to this effect |  | 
2 | COc1ccc2nc(N)nc(C)c2c1 [Compound 2] | activate many of the receptors in non-human organisms | none of these compounds activates any of the human receptors |  |  |  | 
3 | CCc1nc(NC(=N)N)nc2cc(C)ccc12 [Compound 5] | activate many of the receptors in non-human organisms | none of these compounds activates any of the human receptors |  |  |  | 
4 | CC(C)(C)c1cnc(CSc2cnc(NC(=O)C3CCNCC3)s2)o1 [Compound 6] | activate many of the receptors in non-human organisms | none of these compounds activates any of the human receptors |  |  | activates Aedes albopictus NPY-like receptors in vitro | suppresses host-seeking in Aedes albopictus mosquitoes
5 | COc1ccc(CC2c3cc(OC)c(OC)cc3CC[N+]2(C)CCC(=O)OCCCCCOC(=O)CC[N+]2(C)CCc3cc(OC)c(OC)cc3C2Cc2ccc(OC)c(OC)c2)cc1OC (centres unmarked) [Compound 9] | activate many of the receptors in non-human organisms | none of these compounds activates any of the human receptors |  |  |  | 

— patent publication US20210045387A1, “COMPOSITIONS AND METHODS TO INHIBIT ARTHROPOD HOST-SEEKING BEHAVIOR” (The Rockefeller University, priority 2019, published 2021)
